Measured values as given in patent publication US10144736B2 (Gilead Sciences, Inc., priority 2006, dated 2018).
Read-outs that look alike come from different tables or passages of the source.

Experiments:
[1] = CC50 assay (CellTiter-Glo) in Huh-7 HCV replicon cells; assay type: cell-based, human; conditions: human, 3 days incubation, 50% cytostatic concentration
Protocol: (§1) The anti HCV activity of specifically substituted pteridine derivatives was tested in a human hepatoma Huh-7 cell line harbouring a HCV replicon. The assay comprised the following steps:
(§2) Step 1: compound preparation and serial dilution involved the following alternatives, depending upon the water solubility of pteridine derivative being tested:
(§3) • 1. with respect to water soluble pteridine derivatives, 500 μL of solution in cell media (DMEM, 10% FBS, P/S, L-Glutamine) was prepared with a concentration that is twice the concentration of the starting final serial dilution concentration. 150 μL of the solution was added to the pre-specified wells in column 1 of a 96-well cell culture plate (PerkinElmer, white plate, cat. #6005181, for EC50 assay; black plate, cat. #6005182 for CC50 assay). The rest of the plate, i.e. columns 2-12, was filled with 100 μL of cell media. The plate was then placed on a Precision 2000 Workstation in order to start serial dilution. Pteridine compounds were diluted three times each step from column 1 to column 10. Column 11 was used as a blank control (no pteridine compound added). • 2. With respect to poorly water soluble pteridine derivatives, DMSO was used as a solvent, and serial dilution was performed in 50% DMSO in water, in a 384-well plate. A solution containing the relevant compound at 100-fold the concentration of the starting final serial dilution concentration was prepared in 50% DMSO in water and added to the pre-specified wells in column 1 of a polypropylene 384-well plate. This plate was then placed on a Precision 2000 Workstation in order to start serial dilution. After serial dilution, 2 μL of the solution was transferred from the 384-well plate to a 96-well cell culture plate containing 100 μL of cell media on a Biomek FX Workstation. The DMSO concentration in the final assay condition was 0.5% after cells have been added to the plate and the total volume in each well was brought to 200 μL. Step 2: to each well of the serial dilution plate prepared in step 1, 100 μL of cell media containing 6000 suspended Huh-7 HCV replicon cells was added with a Multidrop workstation. Plates were incubated for 3 days at 37° C. with 5% CO2. Step 3: detection: • 1) with respect to the EC50 assay, the media in a 96-well cell culture plate was aspirated with a Biotek EL405 plate-washer. A volume of 200 μL of a solution containing a 1:1 mixture of a cell-lysis buffer (commercially available from Promega, Luciferase Cell Culture Lysis 5X Reagent, cat. #E1531) and a luciferase substrate solution (commercially available from Promega, Luciferase Assay, cat. #E4550) was added to each well of the plate with Multidrop. The plate was incubated for 30 minutes at room temperature before the luminescence signal was measured with a TopCount plate-reader. • 2) with respect to the CC50 assay, 100 μL of a pre-mixed CellTiter-Glo (commercially available from Promega, cat. #G7572) solution was added directly to the cell culture in each well of the plate and the luminescence signal was measured with a TopCount plate-reader after 10 minutes of incubation at room temperature.
(§4) Results are expressed by the following data: • the 50% effective concentration (EC50), i.e. the concentration that protects 50% of the cell monolayer from virus-induced cythopathic effect. • the 50% cytostatic concentration (CC50), i.e. the concentration that results in 50% inhibition of cell growth.

[2] = test system: HCV replicon; test: Anti-HCV replicon assay (EC50, luciferase readout); assay type: cell-based, hepatitis C virus; conditions: human hepatoma Huh-7 cell line harbouring a HCV replicon, 3 days incubation, luciferase signal
Protocol: as §1, §2, §3, §4

[3] = Hepatitis C virus, 72 h, read-out: EC50

Row | SMILES | CC50 at 3 days [1] | EC50 [2, 3] | EC50 ([2]; Hepatitis C virus, Huh-7, 72 h) | EC50 [2]
1 | CCOc1nc(N)nc2ncc(-c3ccc(OC)c(F)c3)nc12 [Example 3, 4-ethoxy-6-(3-fluoro-4-methoxyphenyl)pteridin-2-ylamine] | > 20 µM | 1 to 10 µM | – | –
2 | CCOc1nc(N)nc2ncc(-c3ccc(Cl)cc3)nc12 [Example 27, 6-(4-chlorophenyl)-4-ethoxypteridin-2-ylamine] | < 10 µM | – | 0.3 to 1 µM | –
3 | CCOc1nc(N)nc2ncc(-c3ccc(S(C)(=O)=O)cc3)nc12 [Example 30, 4-ethoxy-6-(4-(methylsulfonyl)phenyl)pteridin-2-ylamine] | > 20 µM | 1 to 10 µM | – | –
4 | CCOc1nc(N)nc2ncc(-c3ccncc3)nc12 [Example 31, 4-ethoxy-6-(pyridin-4-yl)pteridin-2-ylamine] | < 10 µM | 0.3 to 1 µM | – | –
5 | CCOc1nc(N)nc2ncc(-c3ccc(C)cc3)nc12 [Example 54, 4-ethoxy-6-p-tolylpteridin-2-ylamine] | > 20 µM | 1 to 10 µM | – | –
6 | CCOc1nc(N)nc2ncc(-c3ccc(O)cc3)nc12 [Example 57, 4-(2-amino-4-ethoxypteridin-6-yl)phenol] | > 20 µM | – | 1 to 10 µM | –
7 | CCOc1nc(N)nc2ncc(-c3ccc(N)cc3)nc12 [Example 69, 6-(4-aminophenyl)-4-ethoxypteridin-2-ylamine] | > 20 µM | – | 1 to 10 µM | –
8 | Nc1nc(N2CCOCC2)c2nc(-c3ccccc3Cl)cnc2n1 [Example 78, 6-(2-chlorophenyl)-4-morpholinopteridin-2-ylamine] | < 10 µM | – | 0.3 to 1 µM | –
9 | Nc1nc(N2CCOCC2)c2nc(-c3ccccc3C(F)(F)F)cnc2n1 [Example 79, 4-morpholino-6-(2-(trifluoromethyl)phenyl)pteridin-2-ylamine] | < 10 µM | 0.3 to 1 µM | – | –
10 | COc1ccccc1-c1cnc2nc(N)nc(N3CCOCC3)c2n1 [Example 80, 6-(2-methoxyphenyl)-4-morpholinopteridin-2-ylamine] | > 20 µM | 0.3 to 1 µM | – | –
11 | Nc1nc(N2CCOCC2)c2nc(-c3cccc(Cl)c3)cnc2n1 [Example 82, 6-(3-chlorophenyl)-4-morpholinopteridin-2-ylamine] | > 20 µM | – | 0.3 to 1 µM | –
12 | Nc1nc(N2CCOCC2)c2nc(-c3cccc(OC(F)(F)F)c3)cnc2n1 [Example 84, 4-morpholino-6-(3-(trifluoromethoxy)phenyl)-pteridin-2-ylamine] | < 10 µM | < 0.3 µM | – | –
13 | N#Cc1cccc(-c2cnc3nc(N)nc(N4CCOCC4)c3n2)c1 [Example 85, 3-(2-amino-4-morpholinopteridin-6-yl)benzonitrile] | > 20 µM | 1 to 10 µM | – | –
14 | Nc1nc(N2CCOCC2)c2nc(-c3ccc(CN4CCOCC4)cc3)cnc2n1 [Example 89, 4-morpholino-6-(4-(morpholino-methyl)phenyl)pteridin-2-ylamine] | > 20 µM | 1 to 10 µM | – | –
15 | Nc1nc(N2CCOCC2)c2nc(-c3cccc(F)c3F)cnc2n1 [Example 90, 6-(2,3-difluorophenyl)-4-morpholinopteridin-2-ylamine] | > 20 µM | – | – | 0.3 to 1 µM
16 | Nc1nc(N2CCOCC2)c2nc(-c3cccc(Cl)c3Cl)cnc2n1 [Example 91, 6-(2,3-dichlorophenyl)-4-morpholinopteridin-2-amine] | > 20 µM | – | 0.3 to 1 µM | –
17 | Nc1nc(N2CCOCC2)c2nc(-c3ccc(F)cc3Cl)cnc2n1 [Example 92, 6-(2-chloro-4-fluorophenyl)-4-morpholinopteridin-2-ylamine] | 10 to 20 µM | – | 0.3 to 1 µM | –
18 | Nc1nc(N2CCOCC2)c2nc(-c3ccc(C(F)(F)F)cc3C(F)(F)F)cnc2n1 [Example 93, 6-(2,4-bis(trifluoromethyl)phenyl)-4-morpholinopteridin-2-ylamine] | 10 to 20 µM | 1 to 10 µM | – | –
19 | Nc1nc(N2CCOCC2)c2nc(-c3c(Cl)cccc3Cl)cnc2n1 [Example 95, 6-(2,6-dichlorophenyl)-4-morpholinopteridin-2-ylamine] | 10 to 20 µM | – | 1 to 10 µM | –
